Assay results taken from the supplement of paper PMC10307832.

Assays:
Assay in all cases: relative viability (nuclei count vs DMSO), 5 days (fraction); higher = more cells survive
Cediranib + Lapatinib = compound: COc1cc2c(Oc3ccc4[nH]c(C)cc4c3F)ncnc2cc1OCCCN1CCCC1 [Cediranib] + CS(=O)(=O)CCNCc1ccc(-c2ccc3ncnc(Nc4ccc(OCc5cccc(F)c5)c(Cl)c4)c3c2)o1 [Lapatinib] (partner 2 µM)
How it was run: (§1)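 Lung cancer cell lines, seeded in 1536-well plates, were treated the following day by pin tool with a single drug or with five library-drug doses (not always all listed) in √10 steps on top of a fixed anchor-drug dose. Cells were fixed and nuclei stained in one step after 5 days, and nuclei were counted. Relative viability is the nuclei count for treated wells divided by that for vehicle wells, reported as medians of duplicate plates.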

Decitabine + Pemetrexed = compound: Nc1ncn([C@H]2C[C@H](O)[C@@H](CO)O2)c(=O)n1 [Decitabine] + Nc1nc2[nH]cc(CCc3ccc(C(=O)N[C@@H](CCC(=O)O)C(=O)O)cc3)c2c(=O)[nH]1 [Pemetrexed] (partner 0.2 µM)
How it was run: as §1

[1] = compound: O=C(C[C@H]1NCCC[C@@H]1O)Cn1cnc2cc(Br)c(Cl)cc2c1=O (racemic) [Halofuginone] + CS(=O)(=O)N1CCN(Cc2cc3nc(-c4cccc5[nH]ncc45)nc(N4CCOCC4)c3s2)CC1 [Pictilisib] (partner 1 µM)
How it was run: as §1

[2] = compound: O=C(C[C@H]1NCCC[C@@H]1O)Cn1cnc2cc(Br)c(Cl)cc2c1=O (racemic) [Halofuginone] + Nc1nc2[nH]cc(CCc3ccc(C(=O)N[C@@H](CCC(=O)O)C(=O)O)cc3)c2c(=O)[nH]1 [Pemetrexed] (partner 0.2 µM)
How it was run: as §1

Cell Line	relative viability (Cediranib + Lapatinib; first compound 0.04 µM)	relative viability (Cediranib + Lapatinib; first compound 0.1265 µM)	relative viability (Cediranib + Lapatinib; first compound 0.4 µM)	relative viability (Cediranib + Lapatinib; first compound 1.265 µM)	relative viability (Cediranib + Lapatinib; first compound 4 µM)	relative viability (Decitabine + Pemetrexed; first compound 0.04 µM)	relative viability (Decitabine + Pemetrexed; first compound 0.1265 µM)	relative viability (Decitabine + Pemetrexed; first compound 0.4 µM)	relative viability (Decitabine + Pemetrexed; first compound 1.265 µM)	relative viability (Decitabine + Pemetrexed; first compound 4 µM)	relative viability ([1]; first compound 0.001 µM)	relative viability ([1]; first compound 0.003162 µM)	relative viability ([1]; first compound 0.01 µM)	relative viability ([1]; first compound 0.03162 µM)	relative viability ([1]; first compound 0.1 µM)	relative viability ([2]; first compound 0.001 µM)	relative viability ([2]; first compound 0.003162 µM)	relative viability ([2]; first compound 0.01 µM)	relative viability ([2]; first compound 0.03162 µM)	relative viability ([2]; first compound 0.1 µM)
NCI-H2405	1.02	1.13	1.11	1.13	1.09	0.851	0.998	0.787	0.632	0.524	0.522	0.504	0.512	0.478	0.421	1.14	1.07	0.978	0.989	0.638
NCI-H3122	1.05	0.985	1.01	0.98	1.05	0.182	0.179	0.121	0.159	0.185	0.58	0.581	0.538	0.67	0.494	0.207	0.191	0.205	0.189	0.198
PC-3 [JPC-3]	0.479	0.554	0.472	0.391	0.45	–	0.845	0.439	0.528	0.586	0.703	0.78	0.699	0.772	0.769	1.1	1.12	0.983	1.21	0.854
PC-14	0.308	0.461	0.297	0.301	0.404	0.123	0.0812	0.0659	0.0902	0.0856	0.573	0.635	0.5	0.262	0.037	0.153	0.148	0.143	0.163	0.164
RERF-LC-KJ	0.94	0.751	0.783	0.836	0.954	0.441	0.403	0.215	0.401	0.369	0.568	0.601	0.543	0.531	0.433	0.452	0.45	0.434	0.454	0.461
SK-LU-1	1	0.743	0.851	0.836	1.07	0.826	0.754	0.406	0.513	0.49	0.766	0.633	0.557	0.493	0.415	1.03	0.981	0.912	0.921	0.409
SK-MES-1	0.471	0.502	0.441	0.514	0.473	0.828	0.682	0.458	0.343	0.338	0.366	0.358	0.362	0.211	0.145	1.07	0.983	0.877	0.74	0.253
SW 1573	1.17	1.11	0.959	1.07	1.3	0.812	0.844	0.87	0.494	0.323	0.451	0.532	0.435	0.34	0.18	0.914	–	0.775	0.574	0.208
